Results: patent US11046694B2, “Compounds and methods for treating bacterial infections” (Entasis Therapeutics, Inc., priority 2018, dated 2021)
Values after ≈ are worked out from the molar mass of the structure shown. Where a name gives a salt, the structure may show the parent alone.

Key:
P. aeruginosa PBP1a = P. aeruginosa PBP1a (Pseudomonas aeruginosa, UniProt Q07806); format: biochemical; conditions: P. aeruginosa PBP1a 60 nM, BOCILLIN FL 30 nM, pH 7.0
A. baumannii (ARC3495) = test: MIC against A. baumannii; conditions: Acinetobacter baumannii, read-out: A. baumannii MIC (ARC3495) (mg/L)
E. coli (ATCC25922) = test: MIC against E. coli; conditions: Escherichia coli, ATCC25922, read-out: E. coli MIC (ATCC25922) (mg/L)
P. aeruginosa WT (PAO1) = test: MIC, CLSI broth microdilution, P. aeruginosa; format: cell-based; conditions: Pseudomonas aeruginosa, PAO1; CLSI broth microdilution; read-out: P. aeruginosa WT (PAO1) MIC
P. aeruginosa PBP3 = P. aeruginosa PBP3 (Pseudomonas aeruginosa, UniProt G3XD46); format: biochemical; conditions: P. aeruginosa PBP3 60 nM, BOCILLIN FL 30 nM, pH 7.0
[1] = tested on: K. pneumoniae (ATCC700603); test: MIC against K. pneumoniae; conditions: Klebsiella pneumoniae, ATCC700603, read-out: K. pneumoniae MIC (ATCC700603)

Chain of P. aeruginosa PBP1a (Q07806 whole entry): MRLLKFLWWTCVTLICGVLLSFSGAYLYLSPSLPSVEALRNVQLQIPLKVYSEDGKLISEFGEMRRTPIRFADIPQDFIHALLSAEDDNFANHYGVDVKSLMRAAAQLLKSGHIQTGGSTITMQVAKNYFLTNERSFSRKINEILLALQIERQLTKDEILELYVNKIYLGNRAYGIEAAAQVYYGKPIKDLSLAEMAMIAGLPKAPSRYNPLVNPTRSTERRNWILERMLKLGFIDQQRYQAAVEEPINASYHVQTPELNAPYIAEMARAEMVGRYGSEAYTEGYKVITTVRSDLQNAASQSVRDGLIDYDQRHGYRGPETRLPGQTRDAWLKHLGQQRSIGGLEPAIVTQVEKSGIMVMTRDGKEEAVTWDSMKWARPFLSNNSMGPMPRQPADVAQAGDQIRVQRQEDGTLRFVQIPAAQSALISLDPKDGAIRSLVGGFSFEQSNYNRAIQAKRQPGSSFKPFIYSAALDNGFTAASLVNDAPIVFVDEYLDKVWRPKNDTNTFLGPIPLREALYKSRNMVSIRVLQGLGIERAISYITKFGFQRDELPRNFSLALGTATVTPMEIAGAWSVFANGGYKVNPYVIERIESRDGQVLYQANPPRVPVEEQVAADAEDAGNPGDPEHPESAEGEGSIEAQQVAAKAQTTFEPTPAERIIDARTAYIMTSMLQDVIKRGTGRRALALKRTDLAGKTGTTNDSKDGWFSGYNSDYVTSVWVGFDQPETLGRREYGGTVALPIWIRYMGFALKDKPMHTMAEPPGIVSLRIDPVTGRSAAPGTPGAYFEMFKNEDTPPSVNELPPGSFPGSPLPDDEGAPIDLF
Chain of P. aeruginosa PBP3 (G3XD46 whole entry): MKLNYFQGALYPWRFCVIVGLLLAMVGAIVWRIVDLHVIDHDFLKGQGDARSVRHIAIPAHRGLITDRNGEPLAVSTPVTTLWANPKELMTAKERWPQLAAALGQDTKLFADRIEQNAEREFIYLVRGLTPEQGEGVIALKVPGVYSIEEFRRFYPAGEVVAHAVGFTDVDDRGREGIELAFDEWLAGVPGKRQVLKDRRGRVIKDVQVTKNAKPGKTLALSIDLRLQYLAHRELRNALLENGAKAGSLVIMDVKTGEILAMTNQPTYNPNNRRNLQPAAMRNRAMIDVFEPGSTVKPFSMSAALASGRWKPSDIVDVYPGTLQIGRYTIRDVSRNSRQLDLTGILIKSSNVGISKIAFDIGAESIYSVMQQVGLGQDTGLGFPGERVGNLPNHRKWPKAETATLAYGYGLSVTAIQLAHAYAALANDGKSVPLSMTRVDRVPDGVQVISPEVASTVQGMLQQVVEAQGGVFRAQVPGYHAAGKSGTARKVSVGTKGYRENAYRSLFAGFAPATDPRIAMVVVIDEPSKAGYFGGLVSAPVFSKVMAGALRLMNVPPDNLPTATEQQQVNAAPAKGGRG

MIC (A. baumannii (ARC3495))	MIC (E. coli (ATCC25922))	MIC (P. aeruginosa WT (PAO1))	MIC [1]	Compound	PBP1a acylation rate, k(on) (M^−1 · s^−1) (P. aeruginosa PBP1a)	PBP3 acylation rate, k(on) (M^−1 · s^−1) (P. aeruginosa PBP3)
8 to 16 mg/L	8 to 16 mg/L	< 8 µg/mL	8 to 16 µg/mL	CN/C(=N\OCC(N)=O)[C@@H]1c2c(cnn2C)[C@@H]2CN1C(=O)N2OS(=O)(=O)O [Example 57, pyridium (4R,8S)-8-((Z)—N′-(2-amino-2-oxoethoxy)-N-methylcarbamimidoyl)-1-methyl-6-oxo-4,8-dihydro-1H-4,7-methanopyrazolo[3,4-e][1,3]diazepin-5(6H)-yl hydrogen sulfate]	** (** represents a k(on) of 100 to 10,000 M^−1 · s^−1)	*** (*** represents a k(on) > 10,000 M^−1 · s^−1)
8 to 16 mg/L	8 to 16 mg/L	< 8 µg/mL	8 to 16 µg/mL	CN/C(=N\OCC(=O)NCCN)[C@@H]1c2c(cnn2C)[C@@H]2CN1C(=O)N2OS(=O)(=O)O (racemic) [Example 58, (4R,8S)-8-((Z)—N′-(2-((2-aminoethyl)amino)-2-oxoethoxy)-N-methylcarbamimidoyl)-1-methyl-6-oxo-4,8-dihydro-1H-4,7-methanopyrazolo[3,4-e][1,3]diazepin-5(6H)-yl hydrogen sulfate]	* (* represents a k(on) < 100 M^−1 · s^−1)	*** (*** represents a k(on) > 10,000 M^−1 · s^−1)
> 16 mg/L	< 8 mg/L	8 to 16 µg/mL (≈ 17.4 to 34.9 µM)	> 16 µg/mL	CN/C(=N\OCC(=O)NC1CNC1)[C@@H]1c2c(cnn2C)[C@@H]2CN1C(=O)N2OS(=O)(=O)O (racemic) [Example 61]	* (* represents a k(on) < 100 M^−1 · s^−1)	** (** represents a k(on) of 100 to 10,000 M^−1 · s^−1)
8 to 16 mg/L (≈ 16.9 to 33.7 µM)	8 to 16 mg/L (≈ 16.9 to 33.7 µM)	< 8 µg/mL	> 16 µg/mL	CN/C(=N\OCC(=O)NCCCCN)[C@@H]1c2c(cnn2C)[C@@H]2CN1C(=O)N2OS(=O)(=O)O (racemic) [Example 59]	** (** represents a k(on) of 100 to 10,000 M^−1 · s^−1)	*** (*** represents a k(on) > 10,000 M^−1 · s^−1)
> 16 mg/L	< 8 mg/L	8 to 16 µg/mL (≈ 18.5 to 37 µM)	> 16 µg/mL	CN/C(=N\OC(C)(C)C(=O)O)[C@@H]1c2c(cnn2C)[C@@H]2CN1C(=O)N2OS(=O)(=O)O [Example 63]	** (** represents a k(on) of 100 to 10,000 M^−1 · s^−1)	*** (*** represents a k(on) > 10,000 M^−1 · s^−1)
> 16 mg/L	< 8 mg/L	> 16 µg/mL	> 16 µg/mL	CN1C(=O)CON=C1[C@@H]1c2c(cnn2C)[C@@H]2CN1C(=O)N2OS(=O)(=O)O [Example 64, ((4R,8S)-1-methyl-8-(4-methyl-5-oxo-5,6-dihydro-4H-1,2,4-oxadiazin-3-yl)-6-oxo-4,8-dihydro-1H-4,7-methanopyrazolo[3,4-e][1,3]diazepin-5(6H)-yl) hydrogen sulfate]	** (** represents a k(on) of 100 to 10,000 M^−1 · s^−1)	** (** represents a k(on) of 100 to 10,000 M^−1 · s^−1)
> 16 mg/L	< 8 mg/L	> 16 µg/mL	> 16 µg/mL	CN1C(=O)C(C)(C)ON=C1[C@@H]1c2c(cnn2C)[C@@H]2CN1C(=O)N2OS(=O)(=O)O [Example 65]	** (** represents a k(on) of 100 to 10,000 M^−1 · s^−1)	** (** represents a k(on) of 100 to 10,000 M^−1 · s^−1)

The remaining lines, values behind:

Compound	MIC (A. baumannii (ARC3495))	MIC (E. coli (ATCC25922))	MIC (P. aeruginosa WT (PAO1))	MIC [1]	PBP1a acylation rate, k(on) (M^−1 · s^−1) (P. aeruginosa PBP1a)	PBP3 acylation rate, k(on) (M^−1 · s^−1) (P. aeruginosa PBP3)
CN/C(=N\OC(=O)N[C@H]1CCNC1)[C@@H]1c2c(cnn2C)[C@@H]2CN1C(=O)N2OS(=O)(=O)O (racemic) [Example 24]	8 to 16 mg/L (≈ 17.4 to 34.9 µM)	8 to 16 mg/L (≈ 17.4 to 34.9 µM)	< 8 µg/mL	8 to 16 µg/mL (≈ 17.4 to 34.9 µM)	** (** represents a k(on) of 100 to 10,000 M^−1 · s^−1)	*** (*** represents a k(on) > 10,000 M^−1 · s^−1)
CN/C(=N\OC(=O)NCCCC[C@H](N)C(=O)O)[C@@H]1c2c(cnn2C)[C@@H]2CN1C(=O)N2OS(=O)(=O)O (racemic) [Example 31]	> 16 mg/L	< 8 mg/L	8 to 16 µg/mL (≈ 15.4 to 30.9 µM)	> 16 µg/mL	** (** represents a k(on) of 100 to 10,000 M^−1 · s^−1)	*** (*** represents a k(on) > 10,000 M^−1 · s^−1)
CN/C(=N\OC(=O)NCCC(=O)O)[C@@H]1c2c(cnn2C)[C@@H]2CN1C(=O)N2OS(=O)(=O)O (racemic) [Example 27]	> 16 mg/L	< 8 mg/L	8 to 16 µg/mL (≈ 17.3 to 34.7 µM)	> 16 µg/mL	** (** represents a k(on) of 100 to 10,000 M^−1 · s^−1)	*** (*** represents a k(on) > 10,000 M^−1 · s^−1)
CN/C(=N\OC(=O)NCc1cnn(C)c1)[C@@H]1c2c(cnn2C)[C@@H]2CN1C(=O)N2OS(=O)(=O)O (racemic) [Example 15, (4R,8S)-1-methyl-8-((Z)—N-methyl-N′-((((1-methyl-1H-pyrazol-4-yl)methyl)carbamoyl)oxy)carbamimidoyl)-6-oxo-4,8-dihydro-1H-4,7-methanopyrazolo[3,4-e][1,3]diazepin-5(6H)-yl hydrogen sulfate]	> 16 mg/L	< 8 mg/L	> 16 µg/mL	> 16 µg/mL	** (** represents a k(on) of 100 to 10,000 M^−1 · s^−1)	*** (*** represents a k(on) > 10,000 M^−1 · s^−1)
CN/C(=N\OC(=O)NC(C)(C)C(=O)O)[C@@H]1c2c(cnn2C)[C@@H]2CN1C(=O)N2OS(=O)(=O)O (racemic) [Example 34]	> 16 mg/L	8 to 16 mg/L (≈ 16.8 to 33.7 µM)	8 to 16 µg/mL (≈ 16.8 to 33.7 µM)	> 16 µg/mL	** (** represents a k(on) of 100 to 10,000 M^−1 · s^−1)	*** (*** represents a k(on) > 10,000 M^−1 · s^−1)
CN/C(=N\OC(=O)NCCN)[C@@H]1c2c(cnn2C)[C@@H]2CN1C(=O)N2OS(=O)(=O)O (racemic) [Example 18, (4R,8S)-8-((Z)—N′-(((2-aminoethyl)carbamoyl)oxy)-N-methylcarbamimidoyl)-1-methyl-6-oxo-4,8-dihydro-1H-4,7-methanopyrazolo[3,4-e][1,3]diazepin-5(6H)-yl hydrogen sulfate]	8 to 16 mg/L	< 8 mg/L	< 8 µg/mL	8 to 16 µg/mL	** (** represents a k(on) of 100 to 10,000 M^−1 · s^−1)	*** (*** represents a k(on) > 10,000 M^−1 · s^−1)
CN/C(=N\OC(=O)NCC(=O)O)[C@@H]1c2c(cnn2C)[C@@H]2CN1C(=O)N2OS(=O)(=O)O (racemic) [Example 22]	> 16 mg/L	< 8 mg/L	8 to 16 µg/mL (≈ 17.9 to 35.8 µM)	8 to 16 µg/mL (≈ 17.9 to 35.8 µM)	** (** represents a k(on) of 100 to 10,000 M^−1 · s^−1)	*** (*** represents a k(on) > 10,000 M^−1 · s^−1)
CN/C(=N\OC(=O)NC1CNC1)[C@@H]1c2c(cnn2C)[C@@H]2CN1C(=O)N2OS(=O)(=O)O (racemic) [Example 26]	< 8 mg/L	< 8 mg/L	< 8 µg/mL	< 8 µg/mL	** (** represents a k(on) of 100 to 10,000 M^−1 · s^−1)	*** (*** represents a k(on) > 10,000 M^−1 · s^−1)
CN/C(=N\OC(C)=O)[C@@H]1c2c(cnn2C)[C@@H]2CN1C(=O)N2OS(=O)(=O)O [Example 69, pyridium (4R,8S)-8-((Z)—N′-acetoxy-N-methylcarbamimidoyl)-1-methyl-6-oxo-4,8-dihydro-1H-4,7-methanopyrazolo[3,4-e][1,3]diazepin-5(6H)-hydrogen sulfate]	> 16 mg/L	8 to 16 mg/L	> 16 µg/mL	8 to 16 µg/mL	** (** represents a k(on) of 100 to 10,000 M^−1 · s^−1)	*** (*** represents a k(on) > 10,000 M^−1 · s^−1)
CN/C(=N\OC(=O)N[C@H]1CC[C@H](N)CC1)[C@@H]1c2c(cnn2C)[C@@H]2CN1C(=O)N2OS(=O)(=O)O (racemic) [Example 30]	8 to 16 mg/L (≈ 16.4 to 32.9 µM)	8 to 16 mg/L (≈ 16.4 to 32.9 µM)	< 8 µg/mL	> 16 µg/mL	** (** represents a k(on) of 100 to 10,000 M^−1 · s^−1)	*** (*** represents a k(on) > 10,000 M^−1 · s^−1)
CN/C(=N\O)[C@@H]1c2c(cnn2CCNC(C)=O)[C@@H]2CN1C(=O)N2OS(=O)(=O)O [Example 48, (4R,8S)-1-(2-acetamidoethyl)-8-((Z)—N′-hydroxy-N-methylcarbamimidoyl)-6-oxo-4,8-dihydro-1H-4,7-methanopyrazolo[3,4-e][1,3]diazepin-5(6H)-yl hydrogen sulfate]	> 16 mg/L	< 8 mg/L	8 to 16 µg/mL	> 16 µg/mL	* (* represents a k(on) < 100 M^−1 · s^−1)	*** (*** represents a k(on) > 10,000 M^−1 · s^−1)
CN/C(=N\O)[C@@H]1c2c(cnn2CC(N)=O)[C@@H]2CN1C(=O)N2OS(=O)(=O)O [Example 50, (4R,8S)-1-(2-amino-2-oxoethyl)-8-((Z)—N′-hydroxy-N-methylcarbamimidoyl)-6-oxo-4,8-dihydro-1H-4,7-methanopyrazolo[3,4-e][1,3]diazepin-5(6H)-yl sulfate]	8 to 16 mg/L	< 8 mg/L	< 8 µg/mL	< 8 µg/mL	** (** represents a k(on) of 100 to 10,000 M^−1 · s^−1)	*** (*** represents a k(on) > 10,000 M^−1 · s^−1)
